Results reported in patent publication US20230390289A1, “COMBINED USE OF IN10018 AND PLD” (INXMED (NANJING) CO., LTD., priority 2021, published 2023).

Assay: Study IN10018-006 safety: adverse events (CTCAE)
Conditions: female, human, in vivo
Procedure: IN10018 in combination with pegylated liposomal doxorubicin (PLD) for the treatment of platinum-resistant ovarian cancer is currently being evaluated in a Phase Ib/II clinical study (IN10018-006) in China. The IN10018 was used as its tartrate, and the PLD was used as commercially available doxorubicin hydrochloride liposome injection (common name). Study subjects received IN10018 100 mg once daily (QD) orally combined with PLD 40 mg/m^2 by intravenous infusion once every 4 weeks (Q4W). A treatment cycle was 28 days.
By Jul. 30, 2021, a total of 26 patients with platinum-resistant ovarian cancer had been enrolled in the study. All subjects received at least one study drug treatment and were included in the safety analysis; 18 subjects had at least one post-baseline tumor imaging evaluation and were included in efficacy analysis.
By Jun. 22, 2021, 21 of the 22 subjects enrolled had adverse events (AEs), and according to the investigator's assessment, 20 of them had AEs related to IN10018. Regardless of the correlation, the system organ classes (SOC) of AE reported by at least 2 subjects were investigations (90.9%), gastrointestinal disorders (81.8%), renal and urinary disorders (72.7%), general disorders and administration site conditions (59.1%), metabolism and nutrition disorders (59.1%), infections and infestations (54.5%), blood and lymphatic system disorders (50.0%), respiratory, thoracic and mediastinal disorders (27.3%), musculoskeletal and connective tissue disorders (22.7%), skin and subcutaneous tissue disorders (18.2%), nervous system disorders (13.6%), cardiac disorders (18.2%) and psychiatric disorders (9.1%).
By Jun. 22, 2021, a total of 5 of the 22 subjects enrolled had serious adverse events (SAEs), of which 3 subjects reported SAEs related to IN10018: loss of appetite (grade 3, related to both IN10018 and PLD), constipation (grade 2, related to both IN10018 and PLD), abdominal distension (grade 3, related to both IN10018 and PLD), and elevated creatinine (grade 2, related to both IN10018 and PLD). No subject had adverse events leading to dose reduction of IN10018. Adverse events leading to discontinuation of study treatment were reported by 2 subjects, wherein loss of appetite (grade 3) leading to discontinuation in 1 subject was associated with both IN10018 and PLD. […] There were no adverse events leading to death in the study.

COc1cc(C(=O)NC2CCN(C)CC2)c(F)cc1Nc1ncc(C(F)(F)F)c(Oc2cccc3c2C(=O)N(C)C3)n1 [IN10018, 2-fluoro-5-methoxy-4-[(4-(2-methyl-3-oxo-2,3-dihydro-1H-isoindole-4-oxy)-5-trifluoromethyl-pyrimidin-2-yl)amino]-N-(1-methyl-piperidin-4-yl)benzamide]
SAE abdominal distension, grade: 3 grade
SAE constipation, grade: 2 grade
SAE elevated creatinine, grade: 2 grade
SAE loss of appetite, grade: 3 grade
